Reference: ChEMBL document CHEMBL4765293, “Specific stabilization of promoter G-Quadruplex DNA by 2,6-disubstituted amidoanthracene-9,10-dione based dimeric distamycin analogues and their selective cancer cell cytotoxicity” (Eur J Med Chem, 2020)
Activity calls are given as the source filed them. The rule behind the calls is not given here.

Columns and labels:
Quadruplex DNA [1] = assay: Binding affinity to c-MYC G4 quadruplex DNA (unknown orgin) by cyclic voltammetry; type: nucleic-acid assay
Quadruplex DNA [2] = assay: Binding affinity to c-Myc G4-quadruplex DNA (unknown origin) by UV- vis spectrophotometric analysis; type: nucleic-acid assay
Quadruplex DNA [3] = assay: Binding affinity to human c-KIT1 G4-quadruplex DNA (unknown origin) by UV- vis spectrophotometric analysis; type: nucleic-acid assay
Quadruplex DNA [4] = assay: Binding affinity to c-KIT2 G4-quadruplex DNA (unknown origin) by UV- vis spectrophotometric analysis; type: nucleic-acid assay
Quadruplex DNA [5] = assay: Binding affinity to Human telomeric H21 G4 quadruplex DNA (unknown origin) in presence of KCl by UV- vis spectrophotometric analysis; type: nucleic-acid assay
Quadruplex DNA [6] = assay: Binding affinity to human telomeric H21 G4 quadruplex DNA in presence of NaCl by UV- vis spectrophotometric analysis; type: nucleic-acid assay
Calf thymus DNA [7] = assay: Binding affinity to calf thymus duplex DNA by UV- vis spectrophotometric analysis; type: nucleic-acid assay; settings: Bos taurus
[8] = Binding affinity to c-MYC ds DNA (unknown orgin) by UV- vis spectrophotometric analysis
[9] = Selectivity index, binding affinity to c-MYC G4 quadruplex DNA (unknown origin) to binding affinity c-MYC ds DNA (unknown origin)
Quadruplex DNA [10] = assay: Binding affinity to c-MYC G4 quadruplex (unknown origin) assessed as increase in fluorescence intensity at 0.2 uM by fluorescence spectroscopic analysis; type: nucleic-acid assay
Quadruplex DNA [11] = assay: Binding affinity to c-MYC G4-quadruplex DNA (unknown origin) assessed as fluorescence life time by fluorescence spectroscopic analysis relative to compound alone group; type: nucleic-acid assay
Quadruplex DNA [12] = assay: Binding affinity to c-MYC G4-quadruplex DNA (unknown orgin) assessed as slight change in ellipticity of the CD signatures and topology by circular dichroism spectroscopy; type: nucleic-acid assay
Quadruplex DNA [13] = assay: Binding affinity to human telomeric H21 G4-quadruplex DNA assessed as slight change in ellipticity of the CD signatures and topology in presence KCl of by circular dichroism spectroscopy; type: nucleic-acid assay
Quadruplex DNA [14] = assay: Binding affinity to human telomeric H21 G4-quadruplex DNA assessed as slight change in ellipticity of the CD signatures and topology in presence NaCl of by circular dichroism spectroscopy; type: nucleic-acid assay
Calf thymus DNA [15] = assay: Binding affinity to calf thymus duplex DNA assessed as slight change in ellipticity of the CD signatures and topology by circular dichroism spectroscopy; type: nucleic-acid assay; settings: Bos taurus
Homo sapiens = species on record: Homo sapiens; assay: Binding affinity to c-MYC ds DNA (unknown origin) assessed as slight change in ellipticity of the CD signatures and topology by circular dichroism spectroscopy
Quadruplex DNA [16] = assay: Binding affinity to c-MYC G4-quadruplex DNA (unknown orgin) assessed increase in melting temperature measured after 12 hrs by thermal denaturation based spectrophotometric analysis; type: nucleic-acid assay
Quadruplex DNA [17] = assay: Binding affinity to c-KIT1 G4-quadruplex DNA (unknown orgin) assessed increase in melting temperature measured after 12 hrs by thermal denaturation based spectrophotometric analysis; type: nucleic-acid assay
Quadruplex DNA [18] = assay: Binding affinity to c-KIT2 G4-quadruplex DNA (unknown orgin) assessed increase in melting temperature measured after 12 hrs by thermal denaturation based spectrophotometric analysis; type: nucleic-acid assay
Quadruplex DNA [19] = assay: Binding affinity to c-MYC G4-quadruplex DNA (unknown orgin) at 100 uM by ethidium bromide displacement assay; type: nucleic-acid assay
Quadruplex DNA [20] = assay: Induction of stabilization of c-MYC G-quadruplex DNA template sequence (unknown orgin) assessed as inhibition of Taq polymerase mediated DNA polymerization at high concentration in presence K+ measured after 30 mins by Taq DNA polymerase stop assay; type: nucleic-acid assay
NIH3T3 = assay: Cytotoxicity against mouse NIH3T3 cells assessed as cell viability incubated for 72 hr by MTT assay; type: cell-based; settings: NIH3T3, 72 h
[21] = Cytotoxicity against human HDFa cells assessed as cell viability incubated for 72 hr by MTT assay; type: cell-based
HEK-293T = assay: Cytotoxicity against human HEK293T cells assessed as cell viability incubated for 72 hr by MTT assay; type: functional, cell-based
HeLa [22] = assay: Cytotoxicity against human HeLa cells assessed as cell viability incubated for 72 hr by MTT assay; type: functional, cell-based
HeLa [23] = assay: Induction of apoptotic cell death in human HeLa cells assessed as change in nuclear morphology at 3 to 5 uM after 12 hrs by acridine orange/ethidium bromide staining based fluorescence microscopy; type: functional; settings: dose 3-5 µM
HeLa [24] = assay: Induction of apoptosis in human HeLa cells assessed as nuclear condensation and fragmentation at 5 uM measured after 24 hrs by DAPI staining based confocal laser scanning microscopy analysis; type: functional, cell-based
Quadruplex DNA [25] = assay: Binding affinity to c-KIT1 G4 quadruplex (unknown origin) assessed as increase in fluorescence intensity at 0.2 uM by fluorescence spectroscopic analysis; type: nucleic-acid assay
Quadruplex DNA [26] = assay: Binding affinity to c-KIT2 G4 quadruplex (unknown origin) assessed as increase in fluorescence intensity at 0.2 uM by fluorescence spectroscopic analysis; type: nucleic-acid assay
Quadruplex DNA [27] = assay: Binding affinity to human telomeric H21 G4 quadruplex DNA in presence of KCl assessed as increase in fluorescence intensity at 0.2 uM by fluorescence spectroscopic analysis; type: nucleic-acid assay
Quadruplex DNA [28] = assay: Binding affinity to human telomeric H21 G4 quadruplex DNA in presence of NaCl assessed as increase in fluorescence intensity at 0.2 uM by fluorescence spectroscopic analysis; type: nucleic-acid assay
HeLa [29] = assay: Induction of apoptosis in human HeLa cells at 100 uM after 24 to 48 hrs by annexin V/PI- staining based flow cytometric analysis; type: functional, cell-based; settings: time 24-48 hrs
HeLa [30] = assay: Induction of apoptosis in human HeLa cells at 7 uM after 24 to 48 hrs by annexin V/PI- staining based flow cytometric analysis; type: functional, cell-based
HeLa [31] = assay: Induction of apoptosis in human HeLa cells at 5 uM after 24 to 48 hrs by annexin V/PI- staining based flow cytometric analysis; type: functional, cell-based
HeLa [32] = assay: Induction of apoptotic cell death in human HeLa cells assessed as morphological changes from the spindle-shaped cells to round-shaped at 50 to 200 uM measured after 24 hrs by acridine orange/ethidium bromide staining based fluorescence microscopy; type: functional; settings: dose 50-200 µM
HeLa [33] = assay: Induction of apoptotic cell death in human HeLa cells assessed as morphological changes from the spindle-shaped cells to round-shaped at 2 to 10 uM measured after 24 hrs by acridine orange/ethidium bromide staining based fluorescence microscopy; type: functional
HeLa [34] = assay: Induction of apoptotic cell death in human HeLa cells assessed as change in nuclear morphology at 5 to 7 uM after 12 hrs by acridine orange/ethidium bromide staining based fluorescence microscopy; type: functional; settings: dose 5-7 µM
HeLa [35] = assay: Induction of apoptosis in human HeLa cells assessed as nuclear condensation and fragmentation at 7 uM measured after 24 hrs by DAPI staining based confocal laser scanning microscopy analysis; type: functional, cell-based

SMILES	Ka (Quadruplex DNA [2])	Ka (Quadruplex DNA [3])	Ka (Quadruplex DNA [4])	Ka (Quadruplex DNA [5])	Ka (Quadruplex DNA [6])	Ka (Calf thymus DNA [7])	Ka [8]	Selectivity Index [9]	Activity (Quadruplex DNA [10])	Time (Quadruplex DNA [11]) [nanoseconds]	ΔTm (Quadruplex DNA [16]) [°C]	ΔTm (Quadruplex DNA [17]) [°C]	ΔTm (Quadruplex DNA [18]) [°C]	Activity (Quadruplex DNA [20])	IC50 (NIH3T3) [µM]	IC50 [21] [µM]	Activity (Quadruplex DNA [25])	Activity (Quadruplex DNA [26])	Activity (Quadruplex DNA [27])	Activity (Quadruplex DNA [28])	further results
Cn1cc(NC(=O)c2cc(NC(=O)c3cccn3C)cn2C)cc1C(=O)NCCC[N+](C)(C)CC(=O)Nc1ccc2c(c1)C(=O)c1ccc(NC(=O)C[N+](C)(C)CCCNC(=O)c3cc(NC(=O)c4cc(NC(=O)c5cccn5C)cn4C)cn3C)cc1C2=O	3.8 10^6/M	3.1 10^6/M	4.1 10^6/M	1.1 10^6/M	0.6 10^6/M	0.01 10^6/M	0.012 10^6/M	380	Active	0.37	11.1	9.9	6.8	Active	> 100	> 100	Active	Active	Active	Active	Activity (Quadruplex DNA [1]): Active; Activity (Quadruplex DNA [12]): Active; Activity (Quadruplex DNA [13]): Active; Activity (Quadruplex DNA [14]): Active; Activity (Calf thymus DNA [15]): Active; Activity (Homo sapiens): Active; Activity (Quadruplex DNA [19]): Active; IC50 (HEK-293T): 15 µM; IC50 (HeLa [22]): 5.3 µM; Activity (HeLa [23]): Active; Activity (HeLa [24]): Active
Cn1cccc1C(=O)NCCC[N+](C)(C)CC(=O)Nc1ccc2c(c1)C(=O)c1ccc(NC(=O)C[N+](C)(C)CCCNC(=O)c3cccn3C)cc1C2=O.[Cl-].[Cl-]	1.4 10^6/M	0.6 10^6/M	0.8 10^6/M	0.5 10^6/M	0.6 10^6/M	0.02 10^6/M	0.025 10^6/M	70	Active	0.54	3.2	4.7	1.2	Active	> 100	> 100	Active	Active	Active	Active	IC50 (HEK-293T): 43 µM; IC50 (HeLa [22]): > 100 µM; Activity (HeLa [29]): Active; AC50 (HeLa [30]): Active; AC50 (HeLa [31]): Active; Activity (HeLa [32]): Active; AC50 (HeLa [33]): Active
C[N+](C)(C)CC(=O)Nc1ccc2c(c1)C(=O)c1ccc(NC(=O)C[N+](C)(C)C)cc1C2=O	0.16 10^6/M	0.11 10^6/M	0.09 10^6/M	0.07 10^6/M	0.05 10^6/M	0.06 10^6/M	0.05 10^6/M	3.2	–	–	–	–	–	–	–	–	Active	Active	Active	Active	–
Cn1cc(NC(=O)c2cccn2C)cc1C(=O)NCCC[N+](C)(C)CC(=O)Nc1ccc2c(c1)C(=O)c1ccc(NC(=O)C[N+](C)(C)CCCNC(=O)c3cc(NC(=O)c4cccn4C)cn3C)cc1C2=O	2.8 10^6/M	1.3 10^6/M	1.8 10^6/M	0.3 10^6/M	0.6 10^6/M	0.016 10^6/M	0.018 10^6/M	175	Active	0.55	7.4	7.9	5.1	Active	> 100	> 100	Active	Active	Active	Active	Activity (Quadruplex DNA [12]): Active; Activity (Quadruplex DNA [13]): Active; Activity (Quadruplex DNA [14]): Active; Activity (Calf thymus DNA [15]): Active; Activity (Homo sapiens): Active; Activity (Quadruplex DNA [19]): Active; IC50 (HEK-293T): 19 µM; IC50 (HeLa [22]): 7.4 µM; Activity (HeLa [34]): Active; Activity (HeLa [35]): Active
